Test results as given in patent US11312719B2, “9-substituted amino triazolo quinazoline derivatives as adenosine receptor antagonists, pharmaceutical compositions and their use” (Merck Sharp & Dohme Corp., priority 2018, dated 2022).

Key:
[1] = target: human A2b adenosine receptor (Homo sapiens (Human), UniProt P29275); experiment: A2b radioligand filtration binding assay; details: membranes from HEK293 cells expressing human A2b receptor
Procedure, shortened: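 Displacement of a tritiated A2b antagonist (working solution 14 nM) from human A2b receptor membranes of recombinant HEK293 cells, in Mg/Ca-free PBS pH 7.4, 60 min at room temperature after 15 to 30 min compound preincubation. Filtered, counted; normalized to total and 20 μM NECA non-specific binding; IC50 from logistic fit.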

[2] = target: human A2a adenosine receptor (Homo sapiens (Human), UniProt P29274); experiment: A2a receptor affinity radioligand binding assay ([3H] SCH58261); details: for IC50: membranes from HEK293 or CHO cells expressing human A2a receptor
Procedure, shortened: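 IC50 values come from 4-parameter logistic fits of filter-bound radioactivity, normalized to total (1% DMSO) and nonspecific (1 μM ZM241385) binding. Recombinant human A2a membranes (HEK293 or CHO) were exposed to compound for 15–30 min, then to [3H]SCH58261 (4 nM working dilution) for 60 min at room temperature in Tris pH 7.4/MgCl2/Tween20 buffer.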

human A2b adenosine receptor, sequence (P29275 whole entry): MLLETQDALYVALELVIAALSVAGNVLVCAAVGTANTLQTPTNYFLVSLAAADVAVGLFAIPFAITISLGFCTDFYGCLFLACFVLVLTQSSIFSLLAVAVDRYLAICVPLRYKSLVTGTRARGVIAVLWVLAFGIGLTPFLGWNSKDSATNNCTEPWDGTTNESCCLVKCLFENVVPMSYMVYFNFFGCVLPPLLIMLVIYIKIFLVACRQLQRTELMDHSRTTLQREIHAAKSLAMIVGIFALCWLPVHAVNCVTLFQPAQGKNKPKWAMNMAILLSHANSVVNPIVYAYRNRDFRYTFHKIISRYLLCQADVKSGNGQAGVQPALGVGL
human A2a adenosine receptor, sequence (P29274 whole entry): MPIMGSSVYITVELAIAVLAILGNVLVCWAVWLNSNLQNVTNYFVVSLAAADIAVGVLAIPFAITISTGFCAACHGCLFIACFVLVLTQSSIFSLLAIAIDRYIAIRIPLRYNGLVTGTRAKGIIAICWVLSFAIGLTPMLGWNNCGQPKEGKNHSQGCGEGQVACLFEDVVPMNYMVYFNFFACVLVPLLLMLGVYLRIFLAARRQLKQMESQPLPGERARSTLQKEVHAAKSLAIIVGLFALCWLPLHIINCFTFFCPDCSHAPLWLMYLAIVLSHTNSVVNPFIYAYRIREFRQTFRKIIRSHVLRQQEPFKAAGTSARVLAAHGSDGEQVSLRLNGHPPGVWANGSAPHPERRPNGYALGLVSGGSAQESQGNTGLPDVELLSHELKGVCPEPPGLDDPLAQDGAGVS

| Compound | IC50 [1] | IC50 [2] | A2A binding % Inh. @ 1000 nM [2] |
| --- | --- | --- | --- |
| COc1cc(F)cc2c1nc(N)n1nc(C3CCC(C)N(c4cnn(CC(C)(C)O)c4)C3)nc21 (single isomer, unassigned) [Example 120, 1-(4-((2R or 2S,5S or 5R)-5-(5-amino-9-fluoro-7-methoxy-[1,2,4]triazolo[1,5-c]quinazolin-2-yl)-2-methylpiperidin-1-yl)-1H-pyrazol-1-yl)-2-methylpropan-2-ol] | 7.8 nM | 0.6 nM | – |
| COc1cc(F)cc2c1nc(N)n1nc(C3CCC(C)N(c4cnn(C(C)(C)CO)c4)C3)nc21 (single isomer, unassigned) [Example 123, 2-(4-((2S or 2R,5S or 5R)-5-(5-amino-9-fluoro-7-methoxy-[1,2,4]triazolo[1,5-c]quinazolin-2-yl)-2-methylpiperidin-1-yl)-1H-pyrazol-1-yl)-2-methylpropan-1-ol] | 422 nM | 0.3 nM | – |
| COc1cc(F)cc2c1nc(N)n1nc(C3CCC(C)N(c4cnn(C(C)(C)CO)c4)C3)nc21 (single isomer, unassigned) [Example 124, 2-(4-((2R or 2S,5S or 5R)-5-(5-amino-9-fluoro-7-methoxy-[1,2,4]triazolo[1,5-c]quinazolin-2-yl)-2-methylpiperidin-1-yl)-1H-pyrazol-1-yl)-2-methylpropan-1-ol] | 1.7 nM | 0.3 nM | – |
| COc1cc(F)cc2c1nc(N)n1nc(C3CCC(C)N(c4cnn(C(C)(C)CO)c4)C3)nc21 (single isomer, unassigned) [Example 125, 2-(4-((2S or 2R,5R or 5S)-5-(5-amino-9-fluoro-7-methoxy-[1,2,4]triazolo[1,5-c]quinazolin-2-yl)-2-methylpiperidin-1-yl)-1H-pyrazol-1-yl)-2-methylpropan-1-ol] | 2500 nM | 86.4 nM | – |
| COc1cc2nc(N)n3nc(C4CCC(C)N(c5cnn(C(C)(C)CO)c5)C4)nc3c2cc1F (single isomer, unassigned) [Example 126, rac-2-(4-((2R or 2S,5R or 5S)-5-(5-amino-9-fluoro-8-methoxy-[1,2,4]triazolo[1,5-c]quinazolin-2-yl)-2-methylpiperidin-1-yl)-1H-pyrazol-1-yl)-2-methylpropan-1-ol] | 2160 nM | 2.6 nM | – |
| COc1cc2nc(N)n3nc(C4CCC(C)N(c5cnn(C(C)(C)CO)c5)C4)nc3c2cc1F (single isomer, unassigned) [Example 128] | 2.4 nM | 0.3 nM | – |
| COc1cc(F)cc2c1nc(N)n1nc(C3(F)CCCN(c4cnn(CC(C)(C)O)c4)C3)nc21 (single isomer, unassigned) [Example 133, (S or R)-1-(4-(3-(5-amino-9-fluoro-7-methoxy-[1,2,4]triazolo[1,5-c]quinazolin-2-yl)-3-fluoropiperidin-1-yl)-1H-pyrazol-1-yl)-2-methylpropan-2-ol] | 559 nM | 4.3 nM | – |
| COc1cc2nc(N)n3nc(C4CN(c5cn(CC(C)(C)O)nc5C)CCS4(=O)=O)nc3c2cc1F (single isomer, unassigned) [Example 143, (S or R)-2-(5-amino-9-fluoro-8-methoxy-[1,2,4]triazolo[1,5-c]quinazolin-2-yl)-4-(1-(2-hydroxy-2-methylpropyl)-3-methyl-1H-pyrazol-4-yl)thiomorpholine 1,1-dioxide] | 7560 nM | 984 nM | – |

More lines, in order of falling IC50 [1], values ahead:

| IC50 [1] | IC50 [2] | A2A binding % Inh. @ 1000 nM [2] | Compound |
| --- | --- | --- | --- |
| 8050 nM | – | 32% Inh. @ | COc1cc2nc(N)n3nc(C4CN(c5cnn(CC(C)(C)O)c5C)CCS4(=O)=O)nc3c2cc1F (single isomer, unassigned) [Example 145, (S or R)-2-(5-amino-9-fluoro-8-methoxy-[1,2,4]triazolo[1,5-c]quinazolin-2-yl)-4-(1-(2-hydroxy-2-methylpropyl)-5-methyl-1H-pyrazol-4-yl)thiomorpholine 1,1-dioxide] |
| 7940 nM | – | 32% Inh. @ | COc1cc2nc(N)n3nc(C4CN(c5cn(CC(C)(C)O)nc5C)CCS4(=O)=O)nc3c2cc1F (single isomer, unassigned) [Example 142, (R or S)-2-(5-amino-9-fluoro-8-methoxy-[1,2,4]triazolo[1,5-c]quinazolin-2-yl)-4-(1-(2-hydroxy-2-methylpropyl)-3-methyl-1H-pyrazol-4-yl)thiomorpholine 1,1-dioxide] |
| 7140 nM | – | 30% Inh. @ | COc1cc2nc(N)n3nc(C4CN(c5cnn(CC(C)(C)O)c5C)CCS4(=O)=O)nc3c2cc1F (single isomer, unassigned) [Example 144, (R or S)-2-(5-amino-9-fluoro-8-methoxy-[1,2,4]triazolo[1,5-c]quinazolin-2-yl)-4-(1-(2-hydroxy-2-methylpropyl)-5-methyl-1H-pyrazol-4-yl)thiomorpholine 1,1-dioxide] |
| 5340 nM | 55.4 nM | – | COc1cc(F)cc2c1nc(N)n1nc(C3CCC(C)N(c4cnn(CC(C)(C)O)c4)C3)nc21 (single isomer, unassigned) [Example 121, 1-(4-((2S or 2R,5R or 5S)-5-(5-amino-9-fluoro-7-methoxy-[1,2,4]triazolo[1,5-c]quinazolin-2-yl)-2-methylpiperidin-1-yl)-1H-pyrazol-1-yl)-2-methylpropan-2-ol] |
| 4290 nM | 124 nM | – | COc1cc(F)cc2c1nc(N)n1nc(C3(F)CCCN(c4cnn(CC(C)(C)O)c4)C3)nc21 (single isomer, unassigned) [Example 134, (R or S)-1-(4-(3-(5-amino-9-fluoro-7-methoxy-[1,2,4]triazolo[1,5-c]quinazolin-2-yl)-3-fluoropiperidin-1-yl)-1H-pyrazol-1-yl)-2-methylpropan-2-ol] |
| 2060 nM | 369 nM | – | COc1cc(F)cc2c1nc(N)n1nc(C3CCC(C)N(c4cnn(C(C)(C)CO)c4)C3)nc21 (single isomer, unassigned) [Example 122, 2-(4-((2R or 2S,5R or 5S)-5-(5-amino-9-fluoro-7-methoxy-[1,2,4]triazolo[1,5-c]quinazolin-2-yl)-2-methylpiperidin-1-yl)-1H-pyrazol-1-yl)-2-methylpropan-1-ol] |
| 1300 nM | 51.6 nM | – | COc1cc(F)cc2c1nc(N)n1nc(C3CCC(C)N(c4cnn(CC(C)(C)O)c4)C3)nc21 (single isomer, unassigned) [Example 119, 1-(4-((2S or 2R,5S or 5R)-5-(5-amino-9-fluoro-7-methoxy-[1,2,4]triazolo[1,5-c]quinazolin-2-yl)-2-methylpiperidin-1-yl)-1H-pyrazol-1-yl)-2-methylpropan-2-ol] |
| 1160 nM | 120 nM | – | COc1cc2nc(N)n3nc(C4CCC(C)N(c5cnn(C(C)(C)CO)c5)C4)nc3c2cc1F (single isomer, unassigned) [Example 127, 2-(4-((2R or 2S,5R or 5S)-5-(5-amino-9-fluoro-8-methoxy-[1,2,4]triazolo[1,5-c]quinazolin-2-yl)-2-methylpiperidin-1-yl)-1H-pyrazol-1-yl)-2-methylpropan-1-ol] |
| 387 nM | 1.9 nM | – | COc1cc(F)cc2c1nc(N)n1nc(C3CCC(C)N(c4cnn(CC(C)(C)O)c4)C3)nc21 (single isomer, unassigned) [Example 118, 1-(4-((2R or 2S,5R or 5S)-5-(5-amino-9-fluoro-7-methoxy-[1,2,4]triazolo[1,5-c]quinazolin-2-yl)-2-methylpiperidin-1-yl)-1H-pyrazol-1-yl)-2-methylpropan-2-ol] |
